This note sets out measurements from paper PMC4588880, “Three genes encoding AOP2, a protein involved in aliphatic glucosinolate biosynthesis, are differentially expressed in Brassica rapa” (Journal of Experimental Botany, 2015).

Common to all, as to assay: HPLC of desulfoglucosinolates, conversion to 3-butenyl glucosinolate
Common to all, as to type: biochemical
Common to all, as to conditions: 10 mM 2-oxoglutarate, 10 mM ascorbate, 200 uM FeSO4, 200 mM sucrose, 28 °C, 4 h

Test [1] deals with T1, BrAOP2.1 (Brassica rapa, UniProt M4EZD7, H308L).
T1 construct: full-length 439 aa, N-terminal thioredoxin/His fusion (pET-32a), E. coli BL21(DE3), Ni-NTA; chromosome A09

Test [2] has as its target T2, BrAOP2.1 (Brassica rapa, UniProt M4EZD7).
T2 construct: full-length 439 aa, N-terminal thioredoxin/His fusion (pET-32a), E. coli BL21(DE3), Ni-NTA; chromosome A09
T2 sequence (M4EZD7 1-439): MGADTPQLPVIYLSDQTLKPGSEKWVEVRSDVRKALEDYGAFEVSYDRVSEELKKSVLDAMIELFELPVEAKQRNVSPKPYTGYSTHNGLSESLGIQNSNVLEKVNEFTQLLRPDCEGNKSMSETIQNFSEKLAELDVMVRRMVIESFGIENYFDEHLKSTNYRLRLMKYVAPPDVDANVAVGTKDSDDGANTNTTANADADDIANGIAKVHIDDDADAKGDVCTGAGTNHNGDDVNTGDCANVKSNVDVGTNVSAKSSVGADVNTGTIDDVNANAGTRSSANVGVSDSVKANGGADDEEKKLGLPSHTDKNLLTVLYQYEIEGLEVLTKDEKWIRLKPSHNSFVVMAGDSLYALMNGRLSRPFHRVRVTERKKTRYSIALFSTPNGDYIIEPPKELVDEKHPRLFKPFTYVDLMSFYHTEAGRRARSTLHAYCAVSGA

Another test addresses T3, BrAOP2.3 (Brassica rapa, UniProt M4DPT0).
T3 construct: full-length 428 aa, N-terminal thioredoxin/His fusion (pET-32a), E. coli BL21(DE3), Ni-NTA; chromosome A02
T3 sequence (M4DPT0 1-428): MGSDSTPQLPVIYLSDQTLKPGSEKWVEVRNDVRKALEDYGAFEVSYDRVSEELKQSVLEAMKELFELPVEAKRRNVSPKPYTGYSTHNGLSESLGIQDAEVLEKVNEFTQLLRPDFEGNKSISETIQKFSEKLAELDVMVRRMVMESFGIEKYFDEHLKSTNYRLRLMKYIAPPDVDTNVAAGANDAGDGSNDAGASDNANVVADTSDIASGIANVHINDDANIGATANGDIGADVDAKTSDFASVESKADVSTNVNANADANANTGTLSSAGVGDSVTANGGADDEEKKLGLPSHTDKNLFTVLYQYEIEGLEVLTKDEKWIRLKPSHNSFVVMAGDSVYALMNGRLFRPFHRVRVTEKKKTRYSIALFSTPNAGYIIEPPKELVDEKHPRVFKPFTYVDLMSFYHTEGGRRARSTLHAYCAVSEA

T1 sequence (M4EZD7 entry or part of it H308L): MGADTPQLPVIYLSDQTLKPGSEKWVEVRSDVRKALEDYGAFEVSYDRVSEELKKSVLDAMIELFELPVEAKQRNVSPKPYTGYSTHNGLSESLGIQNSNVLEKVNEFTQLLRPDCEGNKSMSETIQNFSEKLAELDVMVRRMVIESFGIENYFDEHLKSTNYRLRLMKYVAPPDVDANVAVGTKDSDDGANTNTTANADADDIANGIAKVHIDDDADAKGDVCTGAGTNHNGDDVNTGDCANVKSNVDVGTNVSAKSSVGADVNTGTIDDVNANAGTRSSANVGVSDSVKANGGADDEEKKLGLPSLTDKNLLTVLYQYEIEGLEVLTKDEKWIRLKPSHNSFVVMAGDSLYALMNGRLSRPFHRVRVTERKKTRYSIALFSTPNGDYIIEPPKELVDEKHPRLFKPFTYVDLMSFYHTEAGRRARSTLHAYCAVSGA

As for `C[S+]([O-])CCCC/C(=N/OS(=O)(=O)O)S[C@@H]1O[C@H](CO)[C@@H](O)[C@H](O)[C@H]1O` (stereo partly drawn) [glucoraphanin], the figures for the “HPLC of desulfoglucosinolates, conversion to 3-butenyl glucosinolate” value on BrAOP2.1 [1], on BrAOP2.1 [2] and on BrAOP2.3 were “the purified H308L mutant enzyme was shown to still catalyse the conversion of GRA”, “all three BrAOP2 proteins successfully catalysed the conversion of GRA to NAP” and “all three BrAOP2 proteins successfully catalysed the conversion of GRA to NAP”, respectively.
